Tests used:
[1] = tested on: p-METTL3 (S43); experiment: p-METTL3 (S43) in A375 cells, IP with METTL3 antibody followed by immunoblot; type: cell-based, human; settings: 1 h, 1 μM dabrafenib, 1 μM PLX-4720, 10 μM PD0325901, 0.1 μM trametinib
Text: FIGS. 10A-10G: ERK Interacts and Phosphorylates METTL3 and WTAP. (A-C) Mass spectrometry detected S43, S50 and S525 phosphorylation in METTL3 in 293T cells co-transfected with B-RAF V600E. (D) Characterization of anti-p-METTL3 (S43) antibodies of 293T cells transfected as indicated with MEK S218D/S222D, HER2 V659E, B-RAF V600E and WT or non-phosphorylatable alanine mutant (3A) METTL3. (E) The METTL3 S43 phosphorylation was identified by in vitro kinase assays, in which purified METTL3-METTL14 were incubated with activated ERK2. (F) A375 cells were treated with 1 μM dabrafenib, 1 μM PLX-4720, 10 μM PD0325901, 0.1 μM tramentib for 1 h. Cell lysates were subjected to IP with METTL3 antibody followed by immunoblot. (G) Phos-tag SDS-PAGE showing the phosphorylation status of WT or non-phosphorylatable alanine mutants of mice WTAP in 293T cells co-transfected with B-RAF. 2A, T298A/S341A.
To investigate METTL3 phosphorylation by ERK inside cells, a polyclonal antibody was generated that targets S43-phosphorylated METTL3. This antibody recognizes S43-phosphorylated METTL3 but not a mutant form of METTL3, METTL3 3A, with all three phosphorylation serine sites replaced with alanine (FIG. 10D). This P-S43 antibody was then used as a tool to monitor METTL3 phosphorylation. […] Furthermore, the p-METTL3 (S43) in A375 cells, a human melanoma cell line with constitutively active ERK due to a B-RAF V600E mutation, was abrogated by treatments with B-RAF inhibitors (dabrafenib and PLX4720) or MEK inhibitors (PD0325901 and trametinib) (FIG. 10F), supporting that S43 phosphorylation on METTL3 is installed through the ERK pathway.
Immunoprecipitation, immunoblotting, and in vitro kinase assay. Immunoprecipitation (IP) and immunoblotting (IB) were performed as previously described (Sun et al., 2016). […] Primary antibodies were detected by HRP-linked secondary antibodies (Cell Signaling) together with SuperSignal West Pico Plus chemiluminescent substrate (Thermo Scientific) and imaged in a FluorChem R system (ProteinSimple).

[2] = tested on: METTL3 / m^6A methyltransferase complex in A375 cells; experiment: Immunoblot of METTL3 / m^6A methyltransferase complex protein in A375 cell lysates; type: cell-based, human
Procedure: FIGS. 6A-6H: Phosphorylation of the m^6A Methyltransferase Complex May Affect Tumorigenesis. (A) Lysates of A375 stable transfectants harvested at different time points after treatment with cycloheximide (CHX) 10 μg/ml were analyzed by immunoblot. (B) LC-MS/MS quantification of the m^6A/A ratio in mRNA of A375 stable transfectants. (C) After 8 h treatment with 10 μM PD0325901 or 0.1 μM tramentib, cell lysates from A375 cells were analyzed by immunoblot. (D) LC-MS/MS quantification of the m^6A/A ratio in mRNA of A375 cells treated with 10 μM PD0325901 or 0.1 μM tramentib for 48 h. (E) After 8hr treatment with 10 μM EOAI3402143 (EOAI) or 30 μM vialinin A , cell lysates from A375 cells were analyzed by immunoblot. (F) A375 stable transfectants as indicated were treated with 3 μM EOAI3402143 (EOAI) or 10 μM vialinin A before measuring cell viability by SRB assay. Data are presented as relative to the R-WT cells without drug treatment (n=3 per group, data represent mean±SEM). (G) Immunofluorescence analysis of METTL3 (green) in SKBR3 cells treated with 1 μM tucatinib and 1 μM lapatinib for 8 hr. DAPI (blue) was used to mark the nucleus. (H) LC-MS/MS quantification of the m^6A/A ratio in mRNA of SKBR3 and BT474 cells treated with 1 μM tucatinib and 1 μM lapatinib for 48 h. (See also FIG. 14.)
FIGS. 11A-11G: USP5 is Required for ERK-Mediated METTL3 Stabilization. (A) A375 cells transfected with HA-ubiquitin (ub) were treated with 10 μM MG-132 and MEK inhibitor PD0325901 for 8 h. The ubiquitination of METTL3 was detected by IP with anti-METTL3 and immunoblot with anti-HA. (B) After 8 h treatment with 10 μM PD0325901 with or without 10 μM MG-132, cell lysates from A375 cells were analyzed by immunoblot. (C) A375 cells were treated with various concentrations of PD0325901 for 1 h. Cell lysates were subjected to IP with METTL3 antibody followed by immunoblot. (D) 293T cells transfected as indicated were subjected to IP/immunoblot analysis. (E) Immunofluorescence analysis of myc-METTL3 (green) in mESC stable transfectants. DAPI (blue) was used to mark the nucleus. (F) Lysates of 293T cells transfected as indicated were subjected to IP with anti-Flag antibody followed by immunoblot. (G) Immunofluorescence analysis of 293T cells co-transfected with myc-METTL3 (green), Flag-USP5 (red) with or without constitutively active B-RAF.
Immunoprecipitation, immunoblotting, and in vitro kinase assay. Immunoprecipitation (IP) and immunoblotting (IB) were performed as previously described (Sun et al., 2016). In brief, protein samples were isolated from respective cells by lysis in RIPA buffer (1% Triton X-100, 150 mM NaCl, 20 mM Na2PO4, pH 7.4) containing Halt Protease and Phosphatase Inhibitor Cocktail (Thermo Scientific). Subsequently, a BCA assay (Thermo Scientific) was used to determine the protein concentrations. For IP, indicated antibody and protein A/G magnetic beads (Thermo Scientific) were incubated with lysate at 4° C. overnight followed by washing and elution with sample buffer. Equal amounts of protein were separated by SDS-PAGE followed by wet transfer to PVDF membranes. Blots were blocked with 5% non-fat milk or BSA and incubated with respective primary antibody at 4° C. overnight. Primary antibodies were detected by HRP-linked secondary antibodies (Cell Signaling) together with SuperSignal West Pico Plus chemiluminescent substrate (Thermo Scientific) and imaged in a FluorChem R system (ProteinSimple).

`O=C(NOC[C@H](O)CO)c1ccc(F)c(F)c1Nc1ccc(I)cc1F` [PD0325901] was tested, and the “p-METTL3 (S43)” value [1] was “abrogated”, the “degradation of METTL3” value ([2]; A375 cells, 10 μM PD0325901, 8 h) was “increased” and the “protein levels of the m^6A methyltransferase complex” value ([2]; A375 melanoma cells, 8 h, 10 μM PD0325901 or 0.1 μM trametinib) was “reduce”.

Source: US20230123585A1, “COMPOSITIONS AND METHODS FOR TREATING OR PREVENTING CANCER USING DEUBIQUITINASE INHIBITORS” (The University of Chicago, priority 2020, published 2023)
